{"source": "patent US20140328762A1", "about": "“Fluorogenic Peptide Probes and Assays” (priority 2011, published 2014)", "key": {"AP-1 DNA [1]": {"tested_on": "AP-1 DNA", "assay": "Absorbance spectra of GCN4 beacons with AP-1 DNA", "type": "binding", "conditions": "1 μM beacon, 10 μM DNA", "experimental": "FIGS. 2A and 2B show line graphs of absorbance versus wavelength (nm). […] All samples contain 1 μM beacon, and concentration for DNA is 10 μM.\n(§1) The AP-1 DNA and AT DNA were used for GCN-4 beacons binding assays as the target and control DNAs, respectively. Rex aptamer and TAR RNA were used for Rex beacon binding assays as the target and control RNAs, respectively. For detailed structures of Rex aptamer and TAR RNA, refer to PDB 1EXY and 1MNB, respectively.\nAs shown by the shifted absorbance peaks (i.e. shift of highest peak) in FIGS. 2A and 2B, both GCN4 225/237 and GCN4 225/244 beacons allow formation of TAMRA H-dimer. […] The GCN4 225/244 beacon was selected for further characterization."}, "AP-1 DNA [2]": {"tested_on": "AP-1 DNA", "assay": "Fluorescence titration of GCN4 beacon with AP-1 DNA", "type": "binding", "conditions": "titration of 100 nM beacon with increasing concentration of AP-1 DNA", "experimental": "(§2) Samples contain 100 nM GCN4 225/244 beacon and indicated concentration of DNA.\nas §1"}, "AT DNA": {"tested_on": "AT DNA", "assay": "Fluorescence titration of GCN4 beacon with AT DNA (negative control)", "type": "binding", "conditions": "100 nM beacon", "experimental": "as §2, §1"}, "E3 peptide [3]": {"target": "E3 peptide", "assay": "Fluorescence titration of K3-b1b3 beacon with E3 peptide", "type": "binding", "experimental": "(§3) All spectra data were obtained with Safire II microplate reader (TECAN). Data was acquired right after mixing the beacon with its target.\nTo further characterize the K3-b1b3 beacon, titration of lower concentration (10 nM) of K3-b1b3 beacon has also been performed."}, "wild-type MBP": {"target": "wild-type MBP (Escherichia coli, UniProt P0AEX9)", "conditions": "data not shown", "source_text": "as §3\n(§4) The application of using the K3-b1b3 beacon for detection of E3-fusion proteins has also been tested. For this purpose, a recombinant maltose binding protein (MBP) with E3 fused at its C-terminal end was created."}, "MBP-E3": {"target": "MBP-E3 (Escherichia coli, UniProt P0AEX9)", "conditions": "data not shown", "source_text": "as §4"}, "E3 peptide [4]": {"tested_on": "E3 peptide", "assay": "Non-specific fluorescence enhancement (crosstalk) assay, FIG. 14, with E3 peptide", "type": "binding", "conditions": "100 nM beacon, 10 μM E3 peptide, 580 nm, excitation 520 nm", "experimental": "(§5) FIGS. 14A and 14B show bar graphs of relative fluorescence intensity versus different peptide beacons. Non-specific fluorescence enhancement of peptide beacons by various unrelated coiled coil-forming peptides is shown. All reagents other than the beacons are loaded to 10 μM. The data represent relative fluorescence intensity at 580 nm (bandwidth 20 nm) collected by excitation at 520 nm (band width 15 nm). (FIG. 14A) All samples contain 100 nM K3-b1b3 beacon. Columns A, B, C, D, E are beacon only, beacon with unlabeled JunLZ-Lb1b4, beacon with unlabeled FosLZ, beacon with unlabeled GCN4 244, and beacon with E3 peptide, respectively. […] Column A, B, C, D, E are beacon only, beacon with unlabeled K3-b1b3 peptide, beacon with E3 peptide, beacon with unlabeled GCN4 244, beacon with FosLZ.\n(§6) So a concern about the binding specificity naturally arises. […] It is not a surprising result, since both peptides have leucine residues at all d positions, and that multiple electrostatic interactions exist between […]."}, "FosLZ": {"target": "T1, FosLZ (Homo sapiens, UniProt P01100)", "T1 construct": "TDTLQAE TDQLEDE KSALQTE IANLLKE KEKLEFI LA; made in house; host or cells: E. coli BL21(DE3)", "assay": "Non-specific fluorescence enhancement (crosstalk) assay, FIG. 14, with FosLZ", "type": "binding", "conditions": "100 nM beacon, 10 μM FosLZ, 580 nm, excitation 520 nm", "experimental": "as §5, §6"}, "unlabeled GCN4 244": {"target": "T2, unlabeled GCN4 244 (Saccharomyces cerevisiae, UniProt P03069, A244C/S225C)", "T2 construct": "[…]; MKQLEDK; GGSGG linker (internal); made in house; host or cells: E. coli BL21(DE3)", "assay": "Non-specific fluorescence enhancement (crosstalk) assay, FIG. 14, with unlabeled GCN4 244", "type": "binding, yeast", "conditions": "100 nM beacon, 10 μM unlabeled GCN4 244, 580 nm, excitation 520 nm", "experimental": "as §5, §6"}, "unlabeled JunLZ-Lb1b4": {"tested_on": "unlabeled JunLZ-Lb1b4", "assay": "Non-specific fluorescence enhancement (crosstalk) assay, FIG. 14A, with unlabeled JunLZ-Lb1b4", "type": "binding", "conditions": "100 nM beacon, 10 μM unlabeled JunLZ-Lb1b4, 580 nm, excitation 520 nm", "experimental": "as §5, §6"}, "[5]": {"tested_on": "unrelated coiled coil-forming peptides", "assay": "Crosstalk of beacon with unrelated peptides, overall", "type": "binding", "conditions": "FIG. 14", "experimental": "as §5, §6"}, "E3 peptide [6]": {"target": "E3 peptide", "conditions": "cited from earlier work"}, "E3 peptide [7]": {"target": "E3 peptide", "assay": "CD spectra analysis of binding between unlabeled K3-b1b3 and E3 peptides", "conditions": "curve fitting"}}, "note": "Read-outs that look alike come from different tables or passages of the source.", "data": [{"substance": "GCN4 225/244 beacon: GCN4 bZip S225C/A244C (SEQ ID NO: 27), fused to C-terminal end of MBP, TAMRA labelled", "values": [{"measurement": "change of absorbance spectrum in the presence of AP-1 DNA", "setting": "AP-1 DNA [1]", "result": "significant alteration of its absorbance spectrum"}, {"measurement": "maximum fluorescence increase", "setting": "AP-1 DNA [2]", "result": 4.3, "unit": "fold"}, {"measurement": "effect of AT DNA on fluorescence", "setting": "AT DNA", "result": "no effects"}]}, {"substance": "K ICALKAK IAALKAK ICALKAGY (SEQ ID NO: 12) with two 6-TAMRA fluorophores attached at the cysteines via maleimide [K3-b1b3 beacon]", "values": [{"measurement": "Kd", "setting": "E3 peptide [3]; curve fitting, 1 μM beacon titration, read-out: Kd value for binding between K3-b1b3 beacon and E3 peptide", "result": 766, "unit": "nM"}, {"measurement": "Kd", "setting": "E3 peptide [3]; curve fitting, titration of 10 nM beacon, read-out: Kd value for binding between K3-b1b3 beacon and E3 peptide", "result": 738, "unit": "nM"}, {"measurement": "Kd", "setting": "E3 peptide [3]; read-out: Kd, result of 1 μM beacon titration (restated), 1 μM beacon titration", "result": 766, "unit": "nM"}, {"measurement": "maximum fluorescence enhancement", "setting": "E3 peptide [3]; titration of 1 μM K3-b1b3 beacon with E3 peptide", "result": "about 12 fold"}, {"measurement": "effect on fluorescence emission of the beacon", "setting": "wild-type MBP", "result": "does not have effects"}, {"measurement": "binding by gel-shift assay", "setting": "MBP-E3", "result": "Specific binding"}, {"measurement": "fluorescence enhancement compared with the beacon only sample", "setting": "E3 peptide [4]", "result": 7.0, "unit": "fold"}, {"measurement": "fluorescence enhancement compared with the beacon only sample", "setting": "FosLZ", "result": 1.6, "unit": "fold"}, {"measurement": "fluorescence enhancement compared with the beacon only sample", "setting": "unlabeled GCN4 244", "result": 1.2, "unit": "fold"}, {"measurement": "fluorescence enhancement compared with the beacon only sample", "setting": "unlabeled JunLZ-Lb1b4", "result": 1.5, "unit": "fold"}, {"measurement": "non-specific fluorescence enhancement by unrelated peptides", "setting": "[5]", "result": "no significant non-specific fluorescence enhancement"}]}, {"substance": "original K3 peptide K IAALKEK IAALKEK IAALKE (SEQ ID NO:29)", "values": [{"measurement": "Kd", "setting": "E3 peptide [6]; literature value restated in Example 4, read-out: Kd value for binding between the K3 and E3 peptides", "result": 70, "unit": "nM"}, {"measurement": "Kd", "setting": "E3 peptide [6]; reported in the literature, read-out: Kd value for binding between the original K3 and E3 peptides", "result": 70, "unit": "nM"}]}, {"substance": "unlabeled modified K3 peptide K ICALKAK IAALKAK ICALKA GY (SEQ ID NO:12) [K3-b1b3]", "values": [{"measurement": "Kd", "setting": "E3 peptide [7]", "result": 45, "unit": "nM"}]}]}
